Results as given in the NIST ThermoML archive (doi:10.1021/je100362p).

Legend:
[1] = xn = mol fraction of the nth substance listed; conditions: 101 kPa, Liquid; for speed of sound: Sing-around technique in a fixed-path interferometer
[2] = refractive index (Na D-line) (dimensionless); xn = mol fraction of the nth substance listed; conditions: 101 kPa, Liquid, Standard Abbe refractometry

Cc1ccccc1O [2-methylphenol] + CCCCCCCCCCO
Conditions | mass density, 298.15 K [kg/m3] | mass density, 303.15 K [kg/m3] | mass density, 308.15 K [kg/m3] | refractive index, 298.15 K | refractive index, 303.15 K | refractive index, 308.15 K | speed of sound, 298.15 K [m/s] | speed of sound, 303.15 K [m/s] | speed of sound, 308.15 K [m/s]
[1], x1 = 0.0861 | 837.502 | 834.018 | 830.549 | – | – | – | 1385.1 | 1368 | 1351.1
[1], x1 = 0.1516 | 846.353 | 842.829 | 839.316 | – | – | – | 1389.3 | 1372.1 | 1355.2
[1], x1 = 0.2077 | 854.319 | 850.761 | 847.206 | – | – | – | 1393 | 1375.7 | 1358.8
[1], x1 = 0.2717 | 863.895 | 860.293 | 856.691 | – | – | – | 1397.2 | 1379.9 | 1363.1
[1], x1 = 0.334 | 873.784 | 870.135 | 866.475 | – | – | – | 1401.6 | 1384.3 | 1367.4
[1], x1 = 0.4103 | 886.741 | 883.035 | 879.298 | – | – | – | 1407.6 | 1390.3 | 1373.2
[1], x1 = 0.4797 | 899.465 | 895.693 | 891.869 | – | – | – | 1413.7 | 1396.5 | 1379.2
[1], x1 = 0.5545 | 914.345 | 910.475 | 906.559 | – | – | – | 1421.3 | 1404 | 1386.8
[1], x1 = 0.6165 | 927.694 | 923.735 | 919.727 | – | – | – | 1428.4 | 1411.1 | 1394.1
[1], x1 = 0.6875 | 944.316 | 940.209 | 936.089 | – | – | – | 1437.8 | 1420.7 | 1403.7
[1], x1 = 0.7538 | 961.343 | 957.079 | 952.828 | – | – | – | 1448.2 | 1431 | 1414.1
[1], x1 = 0.8245 | 981.399 | 976.894 | 972.475 | – | – | – | 1461.2 | 1444 | 1426.8
[1], x1 = 0.8811 | 999.121 | 994.379 | 989.769 | – | – | – | 1473.5 | 1456.2 | 1439.1
[1], x1 = 0.941 | 1019.75 | 1014.71 | 1009.79 | – | – | – | 1488.8 | 1471.6 | 1454.4
[1], x1 = 1 | 1042.32 | 1036.94 | 1031.55 | – | – | – | 1504.6 | 1487.4 | 1470.3
[2], x1 = 0.0861 | – | – | – | 1.43944 | 1.43742 | 1.43507 | – | – | –
[2], x1 = 0.1516 | – | – | – | 1.44351 | 1.44139 | 1.43893 | – | – | –
[2], x1 = 0.2077 | – | – | – | 1.44727 | 1.44505 | 1.44249 | – | – | –
[2], x1 = 0.2717 | – | – | – | 1.45185 | 1.44952 | 1.44685 | – | – | –
[2], x1 = 0.334 | – | – | – | 1.45667 | 1.45426 | 1.45145 | – | – | –
[2], x1 = 0.4103 | – | – | – | 1.46311 | 1.46058 | 1.45761 | – | – | –
[2], x1 = 0.4797 | – | – | – | 1.46956 | 1.46691 | 1.46379 | – | – | –
[2], x1 = 0.5545 | – | – | – | 1.47719 | 1.47444 | 1.47117 | – | – | –
[2], x1 = 0.6165 | – | – | – | 1.48412 | 1.48132 | 1.47792 | – | – | –
[2], x1 = 0.6875 | – | – | – | 1.49283 | 1.49001 | 1.48643 | – | – | –
[2], x1 = 0.7538 | – | – | – | 1.50182 | 1.49892 | 1.49522 | – | – | –
[2], x1 = 0.8245 | – | – | – | 1.51242 | 1.50948 | 1.50566 | – | – | –
[2], x1 = 0.8811 | – | – | – | 1.52175 | 1.51879 | 1.51489 | – | – | –
[2], x1 = 0.941 | – | – | – | 1.53252 | 1.52952 | 1.52555 | – | – | –
[2], x1 = 1 | – | – | – | 1.544 | 1.54099 | 1.53699 | – | – | –

Cc1cccc(O)c1 [3-methylphenol] + CCCCCCCCCCO
Conditions | mass density, 298.15 K [kg/m3] | mass density, 303.15 K [kg/m3] | mass density, 308.15 K [kg/m3] | refractive index, 298.15 K | refractive index, 303.15 K | refractive index, 308.15 K | speed of sound, 298.15 K [m/s] | speed of sound, 303.15 K [m/s] | speed of sound, 308.15 K [m/s]
[1], x1 = 0.0818 | 836.406 | 832.948 | 829.481 | – | – | – | 1384.4 | 1367.3 | 1350.5
[1], x1 = 0.1443 | 844.417 | 840.933 | 837.44 | – | – | – | 1388.1 | 1371 | 1354.3
[1], x1 = 0.2191 | 854.601 | 851.084 | 847.557 | – | – | – | 1392.5 | 1375.5 | 1358.6
[1], x1 = 0.27 | 861.935 | 858.394 | 854.842 | – | – | – | 1395.7 | 1378.5 | 1361.8
[1], x1 = 0.3513 | 874.407 | 870.825 | 867.235 | – | – | – | 1400.5 | 1383.7 | 1366.8
[1], x1 = 0.4154 | 884.964 | 881.35 | 877.727 | – | – | – | 1404.8 | 1388 | 1371.2
[1], x1 = 0.4864 | 897.533 | 893.881 | 890.219 | – | – | – | 1410.1 | 1393.4 | 1376.6
[1], x1 = 0.5447 | 908.582 | 904.899 | 901.205 | – | – | – | 1415.1 | 1398.3 | 1381.5
[1], x1 = 0.6205 | 924.111 | 920.384 | 916.647 | – | – | – | 1422.3 | 1405.6 | 1388.9
[1], x1 = 0.6951 | 940.809 | 937.04 | 933.259 | – | – | – | 1430.7 | 1414 | 1397.5
[1], x1 = 0.7472 | 953.452 | 949.651 | 945.837 | – | – | – | 1437.2 | 1420.7 | 1404.4
[1], x1 = 0.8163 | 971.635 | 967.793 | 963.936 | – | – | – | 1447.3 | 1431.1 | 1414.8
[1], x1 = 0.8738 | 988.185 | 984.309 | 980.414 | – | – | – | 1457.3 | 1441 | 1424.9
[1], x1 = 0.9325 | 1006.6 | 1002.69 | 998.753 | – | – | – | 1468.8 | 1452.8 | 1436.8
[1], x1 = 1 | 1030.05 | 1026.09 | 1022.12 | – | – | – | 1480.9 | 1465.2 | 1449.6
[2], x1 = 0.0818 | – | – | – | 1.43899 | 1.43686 | 1.43464 | – | – | –
[2], x1 = 0.1443 | – | – | – | 1.44269 | 1.44048 | 1.43816 | – | – | –
[2], x1 = 0.2191 | – | – | – | 1.44749 | 1.44514 | 1.44269 | – | – | –
[2], x1 = 0.27 | – | – | – | 1.45104 | 1.44858 | 1.44602 | – | – | –
[2], x1 = 0.3513 | – | – | – | 1.45712 | 1.45453 | 1.45183 | – | – | –
[2], x1 = 0.4154 | – | – | – | 1.46234 | 1.45965 | 1.45687 | – | – | –
[2], x1 = 0.4864 | – | – | – | 1.46869 | 1.46584 | 1.46299 | – | – | –
[2], x1 = 0.5447 | – | – | – | 1.47429 | 1.47138 | 1.46848 | – | – | –
[2], x1 = 0.6205 | – | – | – | 1.48226 | 1.47932 | 1.47636 | – | – | –
[2], x1 = 0.6951 | – | – | – | 1.49092 | 1.48799 | 1.48499 | – | – | –
[2], x1 = 0.7472 | – | – | – | 1.49755 | 1.49459 | 1.49161 | – | – | –
[2], x1 = 0.8163 | – | – | – | 1.50709 | 1.50419 | 1.50126 | – | – | –
[2], x1 = 0.8738 | – | – | – | 1.51581 | 1.51296 | 1.51007 | – | – | –
[2], x1 = 0.9325 | – | – | – | 1.5256 | 1.52274 | 1.51982 | – | – | –
[2], x1 = 1 | – | – | – | 1.538 | 1.535 | 1.532 | – | – | –
